Experimental data: publication PMC7403104 (Antiviral Research, 2020)

Tests used:
[1] = tested on: flaviviral polymerases (DENV3, TBEV, JEV, WNV, ZIKV, YFV); assay type: biochemical, flaviviruses
[2] = tested on: six flaviviral polymerases (NS5 proteins of DENV3, TBEV, JEV, WNV, ZIKV, YFV); assay type: biochemical, flaviviruses
[3] = target: YFV polymerase (NS5 RdRp) (Yellow fever virus, UniProt P03314); experiment: biochemical
Chain of YFV polymerase (NS5 RdRp) (P03314 2507-3411 limits assumed): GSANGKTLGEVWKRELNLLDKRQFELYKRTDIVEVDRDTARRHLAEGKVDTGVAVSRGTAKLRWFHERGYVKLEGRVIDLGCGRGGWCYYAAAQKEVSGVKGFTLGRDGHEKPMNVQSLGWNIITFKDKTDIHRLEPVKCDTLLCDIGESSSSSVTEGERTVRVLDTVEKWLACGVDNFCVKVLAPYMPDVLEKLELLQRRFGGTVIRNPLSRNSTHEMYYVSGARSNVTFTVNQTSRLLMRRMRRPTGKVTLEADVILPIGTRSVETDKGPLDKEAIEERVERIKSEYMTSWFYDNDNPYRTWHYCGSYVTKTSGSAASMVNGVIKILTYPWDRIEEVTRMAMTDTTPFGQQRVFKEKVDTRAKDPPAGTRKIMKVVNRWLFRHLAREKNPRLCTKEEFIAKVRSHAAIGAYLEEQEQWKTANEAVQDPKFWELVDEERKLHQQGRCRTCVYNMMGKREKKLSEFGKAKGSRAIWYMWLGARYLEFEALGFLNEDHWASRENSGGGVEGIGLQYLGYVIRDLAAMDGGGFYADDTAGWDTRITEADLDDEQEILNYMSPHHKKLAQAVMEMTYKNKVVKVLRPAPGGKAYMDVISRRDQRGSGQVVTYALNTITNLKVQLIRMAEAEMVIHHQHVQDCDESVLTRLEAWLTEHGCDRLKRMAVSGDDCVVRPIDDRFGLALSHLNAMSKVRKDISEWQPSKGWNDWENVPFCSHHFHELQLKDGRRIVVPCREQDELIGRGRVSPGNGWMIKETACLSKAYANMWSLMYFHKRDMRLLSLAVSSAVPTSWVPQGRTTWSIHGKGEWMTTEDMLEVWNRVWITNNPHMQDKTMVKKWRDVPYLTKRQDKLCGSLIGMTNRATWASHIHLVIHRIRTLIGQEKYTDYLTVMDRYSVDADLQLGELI

For `CCC(CC)COC(=O)[C@H](C)N[P@](=O)(OC[C@H]1O[C@@](C#N)(c2ccc3c(N)ncnn23)[C@H](O)[C@@H]1O)Oc1ccccc1` [remdesivir, Remdesivir], the “IC50s range in words, flaviviral RdRps” value [1] was “hundreds of nanomolar to single digit micromolar”, the IC50 ([1]; read-out: IC50 range, all the tested flaviviral polymerases) was 200 to 2200 nM and the “incorporation into newly synthesized RNA chain / chain termination” value [2] was “able to incorporate several (five) remdesivir molecules into the newly synthesized RNA chain and finish the primer elongation reaction”. For the same molecule, the IC50 [3] was 260 ± 30 nM.
